Experimental data from patent US20060293323A1, “Therapeutic Combinations of erb B Kinase Inhibitors and Antineoplastic Therapies” (priority 2002, published 2006).
Structures can show the parent of a compound that is named as a salt.

Key:
[1] = system: SCC-7 Murine Squamous Cell Carcinoma; test: SCC-7 murine squamous cell carcinoma, CI-1033 with single-dose radiation
Procedure: Two studies were conducted. […] Radiation was delivered as either a single dose or as multiple fractions over a 5-day period.

Rif-1 sarcoma = test: Rif-1 sarcoma, CI-1033 with multiple doses of radiation; assay type: in vivo, murine
Description: Radiation at 5 Gy for 5 days produced a tumor growth delay of 28.5 days. […] Data representative of this effect is provided on Table I and FIG. 2.

NSCLC, renal cell cancer = test: Clinical administration of CI-1033 alone; assay type: in vivo, human; conditions: repeated courses and prolonged exposures, patients
Description: The treatment may be prolonged, with or without an off drug rest period.

[2] = system: H125 human non-small cell lung cancer xenograft; assay type: in vivo; conditions: CI-1033 PO days 19-23 and 26-30; docetaxel IV days 19, 23, 27
Procedure: (§1) On Day 0 of the test, each mouse was surgically implanted (subcutaneously) with a fragment of tumor weighing approximately 30 mg. The mice were weighed weekly, and tumor size (width and length in mm) were measured three times each week with standard calipers. Tumor mass for each animal was calculated according to the formula: [formula] where “a” is width of the tumor in mm, and “b” is the length in mm. Evaluation of anticancer activity was evaluated based on the formula T-C, where “T” and “C” are the median time (in days) required for the treated and control (respectively) tumors to reach a pre-determined size of 750 mg (the “evaluation size”). […] Standard agents were diluted as described in the package inserts and administered at various dosage levels in 0.5 mL injections.
(§2) In each experiment, mice bearing established tumors were randomized into one of four treatment groups. One group served as control treatment groups. […] The third group was further divided into four subgroups, each of which received the designated standard agent by the route and schedules indicated below.
(§3) Group 4 was further subdivided into groups receiving combination therapy.

[3] = system: murine colon carcinoma, C26; test: Subcutaneous murine colon carcinoma C26, CI-1033 and capecitabine; assay type: in vivo; conditions: for optimum tumor growth delay as single agent: CI-1033 40, 20, 10 mg/kg PO, capecitabine 750, 500 mg/kg PO days 14-16, 21-23, 28-30; for tumor free survivors: single agents or combinations
Procedure: as §1, §2, §3
Capecitabine was administered PO at doses of 750 and 500 mg/kg on days 14-16, 21-23, and 28-30.

[4] = system: L3.6pl human pancreatic carcinoma; test: Orthotopically implanted L3.6pl human pancreatic carcinoma in nude mice, CI-1033 and gemcitabine; assay type: in vivo; conditions: for loss of initial body weight during therapy: once daily, 5 days per week, 4 weeks
[5] = system: A431 human epidermoid, LX-1 lung, A549 lung and GEO colon carcinomas; conditions: several human tumor xenografts; cited from earlier work
[6] = system: OVCAR-5 Human Ovarian Cancer xenografts; test: Advanced OVCAR-5 xenografts, CI-1033 and cisplatin; assay type: in vivo
Procedure: One group served as control treatment groups.
Cisplatin at doses of 12, 6, 3, and 1.5 mg/kg was administered IV on days 28, 32, and 34.

in vivo = conditions: female, nude, mouse, in vivo, ip
Procedure: as §1, §2, §3
(§4) Etoposide was administered IP at doses of 80, 50, and 31 mg/kg on days 12, 16 and 20.

[7] = system: H125 human non-small cell lung cancer xenograft; test: in vivo
Procedure: as §1, §2, §3, §4

[8] = system: MDA-MB-453 human breast carcinoma cells; test: Paclitaxel-induced apoptosis in vitro, paclitaxel and CI-1033 alone or in combination; assay type: cell-based; conditions: 3-day exposure to paclitaxel alone
Description: However, none of the inhibitors of the erbB family tyrosine kinases described above are irreversible and are pan erbB tyrosine kinase inhibitors. […] [Inoue, Clin. Cancer Res. 6:4874-84, 2000.]

[9] = system: H125 human cell lung carcinoma xenografts; assay type: in vivo; conditions: CI-1033 orally days 32-35; topotecan IP days 26-30
Procedure: as §1, §2, §3

[10] = CI-1033 5 mg/kg PO D 7-18 plus X-ray 10 Gy TO D 7
[11] = CI-1033 10 mg/kg PO D 7-18, no X-ray
[12] = CI-1033 10 mg/kg PO D 7-18 plus X-ray 10 Gy TO D 7
[13] = CI-1033 20 mg/kg PO D 7-18, no X-ray
[14] = CI-1033 20 mg/kg PO D 7-18 plus X-ray 10 Gy TO D 7
[15] = CI-1033 40 mg/kg PO D 7-18, no X-ray
[16] = CI-1033 40 mg/kg PO D 7-18 plus X-ray 10 Gy TO D 7
[17] = capecitabine single agent or capecitabine 750 or 500 mg/kg with CI-1033

C=CC(=O)Nc1cc2c(Nc3ccc(F)c(Cl)c3)ncnc2cc1OCCCN1CCOCC1 [CI-1033, N-[4-(3-chloro-4-fluoro-phenylamino)-7-(3-morpholin-4-yl-propoxy)-quinazolin-6-yl]-acrylamide]
% Weight Change (maximum treatment-related weight loss) [1, 10]: −15%
CR (complete response) [1, 10]: 2/6
T − C [1, 10]: 11.1 days
Toxic Deaths [1, 10]: 0/6
% Weight Change (maximum treatment-related weight loss) [1, 11]: −1%
Toxic Deaths [1, 11]: 0/6
T − C ([1]; CI-1033 10 mg/kg PO D 7-18, no X-ray, evaluation size 750 mg): 1.3 days
% Weight Change (maximum treatment-related weight loss) [1, 12]: −13%
PR (partial response) [1, 12]: 1/6
T − C [1, 12]: 9.7 days
Toxic Deaths [1, 12]: 0/6
% Weight Change (maximum treatment-related weight loss) [1, 13]: −1%
Toxic Deaths [1, 13]: 0/6
T − C ([1]; CI-1033 20 mg/kg PO D 7-18, no X-ray, evaluation size 750 mg): 0.2 days
% Weight Change (maximum treatment-related weight loss) [1, 14]: −15%
CR (complete response) [1, 14]: 2/6
PR (partial response) [1, 14]: 1/6
T − C [1, 14]: 20.4 days
Toxic Deaths [1, 14]: 0/6
% Weight Change (maximum treatment-related weight loss) [1, 15]: −2%
Toxic Deaths [1, 15]: 0/6
T − C ([1]; CI-1033 40 mg/kg PO D 7-18, no X-ray, evaluation size 750 mg): 0.9 days
% Weight Change (maximum treatment-related weight loss) [1, 16]: −14%
CR (complete response) [1, 16]: 5/6
T − C [1, 16]: 26.0 days
Toxic Deaths [1, 16]: 0/6
enhancement of antitumor effect by combination with radiation ([1]; single-dose radiation 1 hour after first of 12 PO doses of CI-1033): 91%
enhancement compared to radiation alone (Rif-1 sarcoma; 5 Gy radiation for 5 days, each 1 hour after daily CI-1033): 42%
tumor growth delay (Rif-1 sarcoma; CI-1033 alone, 5-day treatment schedule): 3.7 days
cumulative toxicity (NSCLC, renal cell cancer): no evidence of cumulative toxicity
optimum tumor growth delay as single agent [2]: 11.7 days
optimum tumor growth delay as single agent [3]: 3.6 days
tumor free survivors [3]: 0%
loss of initial body weight during therapy ([4]; CI-1033 10 mg/kg orally): 6%
loss of initial body weight during therapy ([4]; CI-1033 30 mg/kg orally): 9%
body weight between the end of therapy and terminal sacrifice ([4]; CI-1033 10 and 30 mg/kg): gained weight

COc1cc2ncnc(Nc3ccc(F)c(Cl)c3)c2cc1OCCCN1CCOCC1 [Iressa]
therapeutic effect of combination with paclitaxel versus either agent alone [5]: greater therapeutic effect

CCCCCOC(=O)Nc1nc(=O)n([C@@H]2O[C@H](C)[C@@H](O)[C@H]2O)cc1F [capecitabine, 5′-deoxy-5-fluoro-N-[(pentyloxy)carbonyl]-cytidine]
optimum tumor growth delay as single agent [3]: 22.5 days
complete responses [3, 17]: 3/6
partial responses [3, 17]: 2/6
tumor free survivors [3]: 8%

N.N.[Cl][Pt][Cl] [cisplatin, cis-diaminodichloroplatinum (II)]
anticancer effects when administered alone ([6]; CI-1033 PO days 28-37, cisplatin IV days 28, 32, 34): Neither cisplatin nor CI-1033 when administered alone produced meaningful anticancer effects
tumor growth delay (T-C) ([6]; cisplatin alone 12 mg/kg): 10 days

CC(=O)O[C@@]12CO[C@@H]1C[C@H](O)[C@@]1(C)C(=O)[C@H](O)C3=C(C)[C@@H](OC(=O)[C@H](O)[C@@H](NC(=O)OC(C)(C)C)c4ccccc4)C[C@@](O)([C@@H](OC(=O)c4ccccc4)[C@H]21)C3(C)C [docetaxel, reference compound]
optimum tumor growth delay as single agent [2]: 35.7 days

COc1cc([C@@H]2c3cc4c(cc3[C@@H](O[C@@H]3O[C@@H]5CO[C@@H](C)O[C@H]5[C@H](O)[C@H]3O)[C@H]3COC(=O)[C@H]23)OCO4)cc(OC)c1O [etoposide, 4′-demethylepipodophyllotoxin 9-[4,6-0-(R)-ethylidene-(beta)-D-glucopyranoside]]
MTD (in vivo): 50 mg/kg
delaying the growth of H125 as a single agent ([7]; etoposide IP days 12, 16, 20 at 50 mg/kg, CI-1033 200, 124, 77 mg/kg): relatively ineffective
tolerability ([7]; etoposide doses 80, 50, 31 mg/kg IP): well tolerated only at the lowest dose tested

Nc1ccn([C@@H]2O[C@H](CO)[C@@H](O)C2(F)F)c(=O)n1 [gemcitabine, 2′-deoxy-2′,2′-difluoro-cytidine, reference compound]
loss of initial body weight at terminal sacrifice ([4]; gemcitabine alone 125 mg/kg twice weekly): 4%
body weight change over the therapy period ([4]; gemcitabine alone 125 mg/kg twice weekly, tumor bearing nude mice): slight weight gain

CC(=O)O[C@H]1C(=O)[C@@]2(C)[C@H]([C@H](OC(=O)c3ccccc3)[C@]3(O)C[C@H](OC(=O)[C@H](O)[C@@H](NC(=O)c4ccccc4)c4ccccc4)C(C)=C1C3(C)C)[C@]1(OC(C)=O)CO[C@@H]1C[C@@H]2O [paclitaxel]
cells undergoing apoptosis [8]: 23%

CC[C@@]1(O)C(=O)OCc2c1cc1n(c2=O)Cc2cc3c(CN(C)C)c(O)ccc3nc2-1 [topotecan, (S)-10-[(dimethylamino)methyl]-4-ethyl-4,9-dihydroxy-1H-pyrano[3′,4′:6,7]indolizino[1,2-b]quinoline-3,14-(4H,12H )-dione monohydrochloride]
anticancer effectiveness measured by tumor growth delay, single agents [9]: meaningful anticancer effectiveness
